Drawing on patent EP4559908A1, “HETEROARYL DERIVATIVE COMPOUND AND USE THEREOF” (S2CBio Inc., priority 2022, dated 2024), this text covers inhibition for 27 molecules.

In this test the target is T1, human ANO6 (variant 5) (Homo sapiens, UniProt Q4KMQ2).
T1 construct: expressed in transfected cells; host or cells: Fischer rat thyroid (FRT) cells
T1 sequence (Q4KMQ2 1-931 isoform Q4KMQ2-2): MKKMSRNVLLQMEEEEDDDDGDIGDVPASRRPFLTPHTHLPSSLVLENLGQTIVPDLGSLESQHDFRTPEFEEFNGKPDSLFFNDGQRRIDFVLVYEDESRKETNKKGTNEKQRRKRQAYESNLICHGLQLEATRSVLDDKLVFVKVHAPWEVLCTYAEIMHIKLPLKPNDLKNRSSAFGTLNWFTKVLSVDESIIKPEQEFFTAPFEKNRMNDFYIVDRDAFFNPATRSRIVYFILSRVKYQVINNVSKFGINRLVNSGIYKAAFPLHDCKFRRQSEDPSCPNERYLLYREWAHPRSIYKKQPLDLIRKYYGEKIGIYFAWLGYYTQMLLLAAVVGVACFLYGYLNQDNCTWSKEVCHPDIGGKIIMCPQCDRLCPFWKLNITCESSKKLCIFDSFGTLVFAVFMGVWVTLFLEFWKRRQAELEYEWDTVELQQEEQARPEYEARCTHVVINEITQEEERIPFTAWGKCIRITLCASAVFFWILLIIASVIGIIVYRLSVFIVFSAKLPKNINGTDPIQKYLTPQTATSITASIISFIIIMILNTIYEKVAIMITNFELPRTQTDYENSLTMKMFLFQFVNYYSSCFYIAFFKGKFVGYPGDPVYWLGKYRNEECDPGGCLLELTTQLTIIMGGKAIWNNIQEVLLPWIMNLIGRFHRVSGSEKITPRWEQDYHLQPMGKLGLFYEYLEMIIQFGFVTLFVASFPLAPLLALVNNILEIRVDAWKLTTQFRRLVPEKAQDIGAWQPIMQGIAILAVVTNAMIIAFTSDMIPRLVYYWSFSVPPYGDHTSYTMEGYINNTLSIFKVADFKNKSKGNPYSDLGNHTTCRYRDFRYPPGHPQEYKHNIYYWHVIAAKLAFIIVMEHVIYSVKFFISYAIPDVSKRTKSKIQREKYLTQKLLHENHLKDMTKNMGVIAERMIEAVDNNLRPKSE
In words: Lact C2 assay (measuring phosphatidylserine externalization scramblase function). As to conditions: FRT, FRT cells expressing human ANO6 (variant 5), ionomycin 10 µM, Lact-C2-GFP fluorescence, average of three tests; for inhibition at 0.05 µM: compound 50 nM, read-out: % Inhibition 50 nM; for inhibition at 0.1 µM: compound 100 nM; for inhibition at 1 µM: compound 1 µM, read-out: % Inhibition 1 µM. Type of test: cell-based. The method, boiled down:
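Cells were pretreated 10 min with compound (50 nM, 100 nM, 1 µM; 1% DMSO), then given 10 µM ionomycin for 10 min. Surface phosphatidylserine was stained with 500 nM Lact-C2-GFP (10 min, 37 °C), fixed and imaged. Inhibition was scaled between untreated (100%) and ionomycin-alone (0%) wells.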

Where only a bound is given, the exact number is not on record here.

As usually defined, the inhibition is the change of the read-out against control, counted positive when it falls. Consider `Fc1ccc2nc(-c3cccc(Nc4ccc(-c5ccncn5)cn4)c3)[nH]c2c1` [Example 72, N-(3-(6-fluoro-1H-benzo[d]imidazol-2-yl)phenyl)-5-(pyrimidin-4-yl)pyridin-2-amine], for which the inhibition at 0.05 µM is > 60% and the inhibition at 0.1 µM is > 60%. In the case of `Fc1cccc(-c2cnc(Nc3cccc(-c4nc5ccccc5[nH]4)c3)nc2)n1` [Example 259, N-(3-(1H-benzo[d]imidazol-2-yl)phenyl)-5-(6-fluoropyridin-2-yl) pyrimidin-2-amine], the inhibition at 0.05 µM lay within 30 to 60% and the inhibition at 1 µM is > 60%.

For `COc1ccc(-c2ccc(Nc3cccc(-c4nc5ccc(C(F)(F)F)cc5[nH]4)c3)cc2)nn1` [Example 278, N-(4-(6-methoxypyridazin-3-yl)phenyl)-3-(6-(trifluoromethyl)-1H-benzo[d]imidazol-2-yl)aniline], the inhibition at 0.05 µM is > 60%.

Consider `COc1ccc2nc(-c3cccc(Nc4ccc(-c5cccnn5)cc4)c3)[nH]c2c1` [Example 223, 3-(6-methoxy-1H-benzo[d]imidazol-2-yl)-N-(4-(pyridazin-3-yl)phenyl)aniline], for which the inhibition at 0.05 µM was > 60% and the inhibition at 1 µM was > 60%. On to `FC(F)(F)c1ccc2nc(-c3cccc(Nc4ncc(-c5ncccn5)cn4)c3)[nH]c2c1` [Example 63, N-{3-[6-(trifluoromethyl)-1H-benzo[d]imidazol-2-yl]phenyl}-[2,5'-bipyrimidin]-2'-amine], for which the inhibition at 0.05 µM is > 60% and the inhibition at 0.1 µM was > 60%. For `FC(F)(F)Oc1cc2nc(-c3cccc(Nc4ncc(-c5cccnn5)cn4)c3)[nH]c2cc1Cl` [Example 120, N-[3-[6-chloro-5-(trifluoromethoxy)-1H-benzo[d]imidazol-2-yl]phenyl]-5-pyridazin-3-yl-pyrimidin-2-amine], the inhibition at 0.05 µM was > 60% and the inhibition at 1 µM was > 60%. Regarding `FC(F)(F)c1ccc2nc(-c3cccc(Nc4ccc(-c5ccncn5)cc4)c3)[nH]c2c1` [Example 24, N-(4-(pyrimidin-4-yl)phenyl)-3-(6-(trifluoromethyl)-1H-benzo[d]imidazol-2-yl)aniline], the inhibition at 0.05 µM was > 60%, the inhibition at 0.1 µM was > 60% and the inhibition at 1 µM was > 60%.

Regarding `c1cc(Nc2ncc(-c3ccsc3)cn2)cc(-c2nc3ccccc3[nH]2)c1` [Example 164, N-[3-(1H-benzo[d]imidazol-2-yl)phenyl]-5-(3-thienyl)pyrimidin-2-amine], the inhibition at 0.05 µM was in the range of 30 to 60% and the inhibition at 1 µM was > 60%. Regarding `c1cc(Nc2ncc(-c3ccoc3)cn2)cc(-c2nc3ccccc3[nH]2)c1` [Example 163, N-[3-(1H-benzo[d]imidazol-2-yl)phenyl]-5-(3-furyl)pyrimidin-2-amine], the inhibition at 1 µM is > 60%. Same read-out and setting: with `N#Cc1ccc(Nc2cccc(-c3nc4ccc(C(F)(F)F)cc4[nH]3)c2)cc1` [Example 315, 4-((3-(6-(trifluoromethyl)-1H-benzo[d]imidazol-2-yl)phenyl)amino)benzonitrile] the figure was > 60%.

Consider `Clc1ccc2nc(-c3cccc(Nc4ccc(-c5ccccc5)nn4)c3)[nH]c2c1` [Example 12, N-[3-(6-chloro-1H-benzo[d]imidazol-2-yl)phenyl]-6-phenylpyridazin-3-amine], for which the inhibition at 0.05 µM is > 60%, the inhibition at 0.1 µM was > 60% and the inhibition at 1 µM was > 60%.

`c1cc(Nc2ccc(-c3ncco3)cc2)cc(-c2nc3ccccc3[nH]2)c1` [Example 165, 3-(1H-benzo[d]imidazol-2-yl)-N-(4-oxazol-2-ylphenyl)aniline]: the inhibition at 0.05 µM was 30 to 60% and the inhibition at 1 µM was > 60%. As to `Fc1cc(Nc2cccc(-c3nc4ccccc4[nH]3)c2)ccc1-c1cccnn1` [Example 270, N-(3-(1H-benzo[d]imidazol-2-yl)phenyl)-3-fluoro-4-(pyridazin-3-yl)aniline], the inhibition at 0.05 µM was > 60%. `c1cc(Nc2ccc(-c3cccnn3)cc2)cc(-c2nc3ccccc3[nH]2)c1` [Example 21, 3-(1H-benzo[d]imidazol-2-yl)-N-(4-(pyridazin-3-yl)phenyl)aniline]: the inhibition at 0.05 µM was > 60%, the inhibition at 0.1 µM is > 60% and the inhibition at 1 µM is > 60%. Consider `CNc1ccc2nc(-c3cccc(Nc4ccc(-c5cccnn5)cc4)c3)[nH]c2c1` [Example 279, N-methyl-2-(3-((4-(pyridazin-3-yl)phenyl)amino)phenyl)-1H-benzo[d]imidazol-6-amine], for which the inhibition at 1 µM was in the range of 30 to 60%.

Turning to `FC(F)(F)Oc1ccc2nc(-c3cccc(Nc4ncc(-c5ccccn5)cn4)c3)[nH]c2c1` [Example 118, 5-(2-pyridyl)-N-[3-[6-(trifluoromethoxy)-1H-benzo[d]imidazol-2-yl]phenyl]pyrimidin-2-amine], the inhibition at 0.05 µM was > 60% and the inhibition at 1 µM is > 60%.

Consider `Fc1ccc2nc(-c3cccc(Nc4ccc(-c5ccccn5)cc4)c3)[nH]c2c1` [Example 92, 3-(6-fluoro-1H-benzo[d]imidazol-2-yl)-N-[4-(2-pyridyl)phenyl]aniline], for which the inhibition at 0.05 µM is > 60% and the inhibition at 1 µM is > 60%. `FC(F)(F)c1ccc2[nH]c(-c3cccc(Nc4ccc(-c5cccnn5)cc4)c3)nc2n1` [Example 235, N-(4-(pyridazin-3-yl)phenyl)-3-(5-(trifluoromethyl)-1H-imidazo[4,5-b]pyridin-2-yl)aniline]: the inhibition at 0.05 µM was 30 to 60% and the inhibition at 1 µM was > 60%. Take `Fc1cc(F)c2[nH]c(-c3cccc(Nc4ncc(-c5cccnn5)cn4)c3)nc2c1` [Example 292, N-(3-(5,7-difluoro-1H-benzo[d]imidazol-2-yl)phenyl)-5-(pyridazin-3-yl)pyrimidin-2-amine]: the inhibition at 1 µM lay within 30 to 60%.

Consider `Nc1cc(Nc2cccc(-c3nc4ccccc4[nH]3)c2)ccc1-c1cccnn1` [Example 207, N^1-(3-(1H-benzo[d]imidazol-2-yl)phenyl)-4-(pyridazin-3-yl)benzene-1,3-diamine], for which the inhibition at 1 µM is > 60%.

Regarding `Clc1cc2nc(-c3cccc(Nc4ccc(-c5cccnn5)cc4)c3)[nH]c2cc1Cl` [Example 225, 3-(5,6-dichloro-1H-benzo[d]imidazol-2-yl)-N-(4-(pyridazin-3-yl)phenyl)aniline], the inhibition at 0.05 µM is > 60%.

For the molecule `Fc1ccc2nc(-c3cccc(Nc4ccc(-c5cccnn5)cc4)c3)[nH]c2c1` [Example 25, 3-(6-fluoro-1H-benzo[d]imidazol-2-yl)-N-(4-(pyridazin-3-yl)phenyl)aniline], the inhibition at 0.05 µM was > 60%, the inhibition at 0.1 µM was > 60% and the inhibition at 1 µM is > 60%. For `COC(=O)c1ccc2nc(-c3cccc(Nc4ccc(-c5ncccn5)cc4)c3)[nH]c2c1` [Example 78, methyl 2-(3-((4-(pyrimidin-2-yl)phenyl)amino)phenyl)-1H-benzo[d]imidazol-6-carboxylate], the inhibition at 1 µM was > 60%.

In the case of `Fc1ccnc(-c2ccc(Nc3cccc(-c4nc5ccc(C(F)(F)F)cc5[nH]4)c3)cc2)c1` [Example 305, N-(4-(4-fluoropyridin-2-yl)phenyl)-3-(6-(trifluoromethyl)-1H-benzo[d]imidazol-2-yl)aniline], the inhibition at 0.05 µM is 30 to 60% and the inhibition at 1 µM was > 60%. As to `FC(F)(F)c1ccc2nc(-c3cccc(Nc4ccc(-c5ccncn5)nn4)c3)[nH]c2c1` [Example 296, 6-(pyrimidin-4-yl)-N-(3-(6-(trifluoromethyl)-1H-benzo[d]imidazol-2-yl)phenyl)pyridazin-3-amine], the inhibition at 1 µM was 30 to 60%.

For the molecule `FC(F)(F)c1ccc2nc(-c3cccc(Nc4cnc(-c5ccccn5)cn4)c3)[nH]c2c1` [Example 302, 5-(pyridin-2-yl)-N-(3-(6-(trifluoromethyl)-1H-benzo[d]imidazol-2-yl)phenyl)pyrazin-2-amine], the inhibition at 0.05 µM was > 60% and the inhibition at 1 µM is > 60%. Take `Fc1cc(-c2cccnn2)ccc1Nc1cccc(-c2nc3ccccc3[nH]2)c1` [Example 269, N-(3-(1H-benzo[d]imidazol-2-yl)phenyl)-2-fluoro-4-(pyridazin-3-yl)aniline]: the inhibition at 0.05 µM lay in the range of 30 to 60% and the inhibition at 1 µM was > 60%.
